The source of these data is ChEMBL document CHEMBL3616373, “Identification of N-sulfonyl-tetrahydroquinolines as RORc inverse agonists” (Bioorg Med Chem Lett, 2015).

The target of assay [1] is T1, Nuclear receptor ROR-gamma (Homo sapiens, UniProt P51449).
T1 sequence (P51449 whole entry): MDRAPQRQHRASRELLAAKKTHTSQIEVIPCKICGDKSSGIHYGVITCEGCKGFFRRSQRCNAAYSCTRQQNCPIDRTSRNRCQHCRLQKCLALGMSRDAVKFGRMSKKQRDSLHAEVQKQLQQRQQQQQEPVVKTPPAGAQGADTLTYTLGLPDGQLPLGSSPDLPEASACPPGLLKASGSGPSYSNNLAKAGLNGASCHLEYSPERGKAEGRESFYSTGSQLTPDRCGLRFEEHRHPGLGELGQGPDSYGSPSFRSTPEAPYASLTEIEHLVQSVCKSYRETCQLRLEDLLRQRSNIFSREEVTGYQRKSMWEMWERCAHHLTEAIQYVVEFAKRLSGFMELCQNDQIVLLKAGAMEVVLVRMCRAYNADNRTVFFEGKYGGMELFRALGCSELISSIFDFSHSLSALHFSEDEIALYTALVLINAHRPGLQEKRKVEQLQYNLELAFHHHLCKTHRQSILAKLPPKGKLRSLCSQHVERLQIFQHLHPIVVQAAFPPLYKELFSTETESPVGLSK
In words: Inverse agonist activity at N-terminal 6xHis-tagged human RORc ligand binding domain (241 to 486) expressed in bacterial expression system assessed as inhibition of SRC1 co-activator peptide recruitment after 3 hrs by TR-FRET analysis. It counts as functional.

Assay [2] has as its target T2, Nuclear receptor ROR-gamma (Homo sapiens) (UniProt P51449).
T2 sequence (whole entry): T1 sequence (P51449 whole entry)
In words: Inverse agonist activity at N-terminal 6xHis-tagged human RORc ligand binding domain (241 to 486) expressed in bacterial expression system assessed as inhibition of SRC1 co-activator peptide recruitment after 3 hrs by TR-FRET analysis relative to apo-RORc ligand binding domain. In general terms: In TR-FRET formats the signal depends on donor and acceptor labels being close together.

Assay [3] concerns the target T1, Nuclear receptor ROR-gamma. In words: Displacement of [3H2]-25-hydroxycholesterol from N-terminal 6xHis-tagged human RORc ligand binding domain (241 to 486) expressed in bacterial expression system after 3 hrs by scintillation counting analysis.

For the molecule `O=C(Nc1ccc2c(c1)CCCCN2S(=O)(=O)c1ccc(F)cc1)c1c(F)cccc1F`, the half-maximal effective concentration (EC50) in assay [1] is more than 10000 nM.

`CS(=O)(=O)N1CCCc2ccc(NC(=O)c3c(F)cccc3F)cc21`: in assay [1], the concentration for a half-maximal effect (EC50) is more than 10000 nM. For `O=C(Nc1ccc2c(c1)N(S(=O)(=O)c1ccc(F)cc1)CCC2)c1ccccc1F`, the EC50 in assay [1] came out at 420 nM. Also, the Efficacy in assay [2] was -81%.

In the case of `O=C(Nc1ccc2c(c1)N(S(=O)(=O)c1ccc(F)cc1)CCC2)c1cccc(F)c1`, the EC50 in assay [1] was 470 nM. In addition, the Efficacy in assay [2] is -69%.

Consider `O=C(Nc1ccc2c(c1)CCN2S(=O)(=O)c1ccc(F)cc1)c1c(F)cccc1F`, for which the EC50 in assay [1] is more than 10000 nM. On to `O=C(Nc1ccc2c(c1)N(S(=O)(=O)c1ccc(F)cc1)CCC2)c1ccccc1`, for which, in assay [1], the 50% effective concentration (EC50) stood at 550 nM. In addition, the Efficacy in assay [2] was -89%. The corresponding values for `O=S(=O)(Nc1ccc2c(c1)N(S(=O)(=O)c1ccc(F)cc1)CCC2)c1ccccc1` are 570 nM and -77%. On to `O=C(Nc1ccc2c(c1)N(S(=O)(=O)c1cccs1)CCC2)c1c(F)cccc1F`, for which the EC50 in assay [1] stood at 2100 nM. Besides, the Efficacy in assay [2] is -77%. Further, the IC50 in assay [3] was 1100 nM. Take `Cc1ccccc1C(=O)Nc1ccc2c(c1)N(S(=O)(=O)c1ccc(F)cc1)CCC2`: in assay [1], the EC50 is 120 nM. The Efficacy in assay [2] is -80%. With `O=C(Nc1ccc2c(c1)N(C(=O)c1ccccc1)CCC2)c1c(F)cccc1F`, in assay [1], the EC50 is more than 10000 nM. `O=C(Nc1ccc2c(c1)N(S(=O)(=O)c1ccc(F)cc1)CCC2)c1ccno1`: the 50% effective concentration (EC50) in assay [1] stood at 7400 nM. Further, the Efficacy in assay [2] was -54%. On to `O=C(Nc1ccc2c(c1)CCCN2S(=O)(=O)c1ccc(F)cc1)c1c(F)cccc1F`, for which, in assay [1], the concentration giving a half-maximal response (EC50) was more than 10000 nM. With `O=C(Nc1ccc2c(c1)N(S(=O)(=O)c1ccc(F)cc1)CCC2)C1CC1`, in assay [1], the 50% effective concentration (EC50) was 3600 nM. For the same molecule, in assay [2], the Efficacy is -63%. In the case of `O=C(Nc1ccc2c(c1)N(S(=O)(=O)c1ccccc1)CCC2)c1c(F)cccc1F`, the EC50 in assay [1] was 230 nM. In assay [2], the Efficacy was -91%. The molecule also registered a concentration for half-maximal inhibition (IC50) in assay [3] of 180 nM. Turning to `O=C(Nc1ccc2c(c1)N(S(=O)(=O)c1ccc(F)cc1)CCC2)c1cnccn1`, in assay [1], the concentration giving a half-maximal response (EC50) is more than 10000 nM. For `O=C(Nc1ccc2c(c1)N(S(=O)(=O)c1ccc(F)cc1)CCC2)c1ccc(F)cc1`, the 50% effective concentration (EC50) in assay [1] stood at 1700 nM. In assay [2], the Efficacy is -75%. Regarding `Cc1ccc(S(=O)(=O)N2CCCc3ccc(NC(=O)c4c(F)cccc4F)cc32)cc1`, the concentration for a half-maximal effect (EC50) in assay [1] turned out to be 150 nM. Further, the Efficacy in assay [2] is -95%. In assay [3], this molecule had a 50% inhibitory concentration (IC50) of 110 nM. As for `O=C(Nc1ccc2c(c1)N(S(=O)(=O)c1ccc(F)cc1)CCCC2)c1c(F)cccc1F`, in assay [1], the EC50 turned out to be 230 nM. The Efficacy in assay [2] is -96%. As to `O=C(Nc1ccc2c(c1)N(S(=O)(=O)c1ccc(F)cc1)CCC2)c1ccncc1`, the EC50 in assay [1] came to 6800 nM. Moreover, in assay [2], the Efficacy is -58%. As to `CC(=O)Nc1ccc2c(c1)N(S(=O)(=O)c1ccc(F)cc1)CCC2`, the EC50 in assay [1] was more than 10000 nM.

The EC50 is the concentration that produces a half-maximal response. Broadly, the IC50 is the concentration needed to halve the response being measured.
